According to article PMC6438990 (Cellular and Molecular Gastroenterology and Hepatology, 2019):

Molecular target: T1, SLC26A3 (DRA, down-regulated in adenoma) (Homo sapiens, UniProt P40879)
T1 sequence (P40879 1-764): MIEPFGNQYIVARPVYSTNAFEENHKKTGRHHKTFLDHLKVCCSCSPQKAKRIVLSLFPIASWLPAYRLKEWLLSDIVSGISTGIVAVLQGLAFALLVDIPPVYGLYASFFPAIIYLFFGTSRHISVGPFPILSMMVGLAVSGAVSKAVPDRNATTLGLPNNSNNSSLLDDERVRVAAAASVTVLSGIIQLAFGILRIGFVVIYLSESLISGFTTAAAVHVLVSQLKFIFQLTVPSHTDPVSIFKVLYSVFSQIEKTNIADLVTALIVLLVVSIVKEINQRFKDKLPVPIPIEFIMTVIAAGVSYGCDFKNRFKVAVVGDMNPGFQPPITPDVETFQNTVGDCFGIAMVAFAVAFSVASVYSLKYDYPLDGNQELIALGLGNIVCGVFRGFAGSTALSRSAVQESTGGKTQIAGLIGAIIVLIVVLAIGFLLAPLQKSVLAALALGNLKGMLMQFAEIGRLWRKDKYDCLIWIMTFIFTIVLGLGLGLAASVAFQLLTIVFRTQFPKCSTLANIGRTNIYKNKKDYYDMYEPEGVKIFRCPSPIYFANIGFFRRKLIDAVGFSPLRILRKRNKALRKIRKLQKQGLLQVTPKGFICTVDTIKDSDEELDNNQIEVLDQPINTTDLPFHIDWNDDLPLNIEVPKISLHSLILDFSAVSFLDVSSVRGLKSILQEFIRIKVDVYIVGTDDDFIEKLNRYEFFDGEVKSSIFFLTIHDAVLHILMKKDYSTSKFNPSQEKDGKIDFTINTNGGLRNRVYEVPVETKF
Assay type: cell-based

- IC50: 120 ± 40 nM
Compound: Cc1c(CC(=O)O)c(=O)oc2c(C)c(OCc3cccc(Br)c3)ccc12 [DRAinh-A250]
